Among the data in BindingDB's records for doi:10.7270/Q20G3HMV (Burnham Center For Chemical Genomics, 2010) are IC50 values, retold here.

Some results are limits rather than exact numbers.

Sequence of Envelope glycoprotein gp160 (Q6QLK5 whole entry, the tested form may be a part): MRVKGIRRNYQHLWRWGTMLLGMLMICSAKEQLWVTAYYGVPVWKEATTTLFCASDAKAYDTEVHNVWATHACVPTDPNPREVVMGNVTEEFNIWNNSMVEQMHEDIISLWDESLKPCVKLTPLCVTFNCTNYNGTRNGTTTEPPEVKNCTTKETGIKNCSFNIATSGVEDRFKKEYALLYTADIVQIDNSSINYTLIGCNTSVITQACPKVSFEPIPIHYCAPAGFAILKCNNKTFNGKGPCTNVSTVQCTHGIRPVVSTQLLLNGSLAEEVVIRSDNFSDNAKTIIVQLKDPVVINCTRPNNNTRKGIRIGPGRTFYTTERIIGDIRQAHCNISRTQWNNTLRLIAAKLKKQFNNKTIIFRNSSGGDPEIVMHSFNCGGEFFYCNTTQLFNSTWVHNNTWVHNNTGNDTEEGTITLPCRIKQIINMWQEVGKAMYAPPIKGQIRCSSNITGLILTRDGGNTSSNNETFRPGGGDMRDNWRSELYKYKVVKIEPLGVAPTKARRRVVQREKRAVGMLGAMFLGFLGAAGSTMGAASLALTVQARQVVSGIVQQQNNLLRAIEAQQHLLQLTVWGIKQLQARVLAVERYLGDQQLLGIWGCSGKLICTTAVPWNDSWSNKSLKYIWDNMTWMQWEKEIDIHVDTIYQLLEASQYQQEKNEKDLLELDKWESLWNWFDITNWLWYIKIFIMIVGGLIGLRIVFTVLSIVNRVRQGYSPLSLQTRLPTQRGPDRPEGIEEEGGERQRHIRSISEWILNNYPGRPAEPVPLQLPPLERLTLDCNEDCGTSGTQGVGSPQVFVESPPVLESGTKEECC

This assay has as its target Envelope glycoprotein gp160 (Human immunodeficiency virus 1, UniProt Q6QLK5). Nature of the assay: HIV Env-driven cell-cell fusion inhibition, SAR follow-up, luminescence reporter (AID 435029).
In general, IC50 refers to the point on the concentration scale where inhibition reaches its midpoint. Lower therefore signals greater potency. As to `N#C/C(=C\C1C=CC(=O)C([N+](=O)[O-])=C1)c1nc2ccccc2s1` (centres undefined), the IC50 amounted to 4.65 µM.

`CCOC(=O)c1sc(N2C(=O)C(=O)C(C(=O)c3ccc(C)o3)C2c2cccc([N+](=O)[O-])c2)nc1C` (centres undefined) [ethyl 4-methyl-2-[3-(5-methylfuran-2-yl)carbonyl-2-(3-nitrophenyl)-4-oxidanyl-5-oxidanylidene-2H-pyrrol-1-yl]-1,3-thiazole-5-carboxylate] had an IC50 of 5.1 µM.

Compound `O=C1NC(=S)N(C2CCCCC2)C(=O)C1=CNNC(=O)c1ccccc1O` [N'-[(E)-(1-cyclohexyl-4,6-dioxo-2-sulfanylidene-1,3-diazinan-5-ylidene)methyl]-2-hydroxybenzohydrazide] had an IC50 of 11.5 µM.

As to `Cc1c(Cl)cccc1NS(=O)(=O)c1ccc2c(c1)C1C=CCC1C(c1ccc(C(=O)O)cc1)N2` (centres undefined), the half-inhibitory concentration (IC50) came out at 5.4 µM.

`O=C1Nc2ccc([N+](=O)[O-])cc2C1=NNc1ccccc1C(=O)O` [2-[2-(5-nitro-2-oxidanylidene-indol-3-yl)hydrazinyl]benzoic acid] yielded an IC50 of more than 100 µM.

As for `CC(C)S(=O)(=O)C1=NSC2=NC(=O)/C(=C\c3ccc(-c4cccc(C(=O)O)c4)o3)C(=N)N21` [3-[5-[(Z)-(5-imino-7-oxo-3-propan-2-ylsulfonyl-[1,2,4]thiadiazolo[4,5-a]pyrimidin-6-ylidene)methyl]furan-2-yl]benzoic acid], the IC50 came to 68 µM. That is a double-digit micromolar value.

Take `CC(C)NC(=O)c1sc(=S)n2c1[nH]c(=O)c1ccc(C(=O)NCCc3ccc(Cl)cc3)cc12` [N8-[2-(4-chlorophenyl)ethyl]-5-oxidanylidene-N3-propan-2-yl-1-sulfanylidene-4H-[1,3]thiazolo[3,4-a]quinazoline-3,8-dicarboxamide]: it took 11.1 µM to reach half-maximal inhibition (IC50). This IC50 lies about 6.1-fold lower than the previous one.

Consider `CCOc1cc(/C=C2\SC(=O)N(CC(=O)Nc3ccccc3F)C2=O)cc([N+](=O)[O-])c1O`, for which the IC50 was 8.3 µM.

With `O=C1NC(=S)N(c2ccc(F)cc2)C(=O)C1=Cc1ccco1` [(5E)-1-(4-fluorophenyl)-5-(2-furanylmethylidene)-2-sulfanylidene-1,3-diazinane-4,6-dione], half-maximal inhibition (IC50) was put at 20 µM. This IC50 is about 2.4-fold higher than that of the compound before.

On to `O=C(O)CCCN1C(=O)/C(=C/c2ccc(-c3nc4ccccc4s3)o2)SC1=S` [4-[(5Z)-5-[[5-(1,3-benzothiazol-2-yl)furan-2-yl]methylidene]-4-oxo-2-sulfanylidene-1,3-thiazolidin-3-yl]butanoic acid], for which the IC50 was 1 µM.

`CS(=O)(=O)C1=NSC2=NC(=O)/C(=C\c3cccn3-c3ccc(Cl)cc3)C(=N)N21`: the concentration for half-maximal inhibition (IC50) was 8.8 µM.

In turn, `CS(=O)(=O)C1=NSC2=NC(=O)/C(=C\c3ccc(OS(=O)(=O)c4ccccc4)cc3)C(=N)N21` displayed a half-maximal inhibitory concentration (IC50) of 12.7 µM.

In the case of `COc1ccc(C(=O)Oc2ccc(CN=Nc3ccc(Cl)c(C(=O)O)c3)cc2OC)cc1` [SMR000589907], the concentration for half-maximal inhibition (IC50) was 13 µM. The IC50 values of the last two compounds are within 1.5-fold of each other.

The compound `CC(C)(C)c1cc(-c2cs/c(=N\c3ccccc3)n2Cc2ccc(C(=O)O)cc2)cc(C(C)(C)C)c1O` [4-[[4-(3,5-ditert-butyl-4-oxidanyl-phenyl)-2-phenylazanyl-1,3-thiazol-3-ium-3-yl]methyl]benzoic acid;bromide] returned an IC50 of 3.5 µM.

For `COc1ccccc1NS(=O)(=O)c1cccc(-n2c(O)c(C=Nc3ccccc3C(=O)O)c3ccccc3c2=O)c1` [MLS000776209], the IC50 stood at 2.3 µM. This IC50 lies about 1.5-fold lower than the previous one.

Consider `CCS(=O)(=O)C1=NSC2=NC(=O)/C(=C\c3ccc(OS(=O)(=O)c4ccccc4)cc3)C(=N)N21` [MLS-0362442.0001], for which 8.4 µM corresponded to half-maximal inhibition (IC50). This IC50 is about 3.7-fold higher than that of the compound before.

Regarding `Cc1cc(C)cc(-n2cccc2/C=C2/C(=N)N3C(=NC2=O)SN=C3S(C)(=O)=O)c1` [(6Z)-5-azanylidene-6-[[1-(3,5-dimethylphenyl)pyrrol-2-yl]methylidene]-3-methylsulfonyl-[1,2,4]thiadiazolo[4,5-a]pyrimidin-7-one], half-maximal inhibition (IC50) was put at 4.7 µM. Compared with the last compound, the IC50 is about 1.8-fold lower.

`COc1ccc(OC)c(N2C(=O)C(=Cc3ccco3)C(=O)NC2=S)c1` [MLS001197216]: the midpoint of inhibition, the IC50, lay at 15 µM.

The compound `COc1cc(/C=C2\SC(=O)N(c3ccccc3Cl)C2=O)cc([N+](=O)[O-])c1O` yielded an IC50 of 7.5 µM.

`O=C(O)c1cc(N=NCc2ccc(-c3ccccc3)cc2)ccc1Cl` [MLS-0319671.0001] gave an IC50 of 10 µM.

In turn, `CSc1nnc(-c2ccccc2N=Cc2c(C)[nH]n(-c3ccc4ccccc4c3)c2=O)c(=O)[nH]1` [MLS000540062] returned an IC50 of 16.5 µM.

Turning to `Cc1ccc(-n2c(O)c(C=Nc3ccccc3-c3n[nH]c(=S)[nH]c3=O)c3ccccc3c2=O)c(C)c1` [SMR000370443], 9.8 µM corresponded to half-maximal inhibition (IC50).

Compound `CC1(C)CC(=O)C2=C(C1)c1c(ccc3ccccc13)NC2c1cc([N+](=O)[O-])cc([N+](=O)[O-])c1O` (centres undefined) [MLS000716265] registered an IC50 of 2.4 µM.

`O=c1/c(=C/c2cc([N+](=O)[O-])cc([N+](=O)[O-])c2O)sc2nc3ccccc3n12` [2-[(2-hydroxy-3,5-dinitrophenyl)methylidene]-1-thiazolo[3,2-a]benzimidazolone] gave an IC50 of 8.6 µM. Compared with the last compound, the IC50 is about 3.6-fold higher.

Turning to `CCC(C)(C)C1CCc2c(sc(NC(=O)c3ccccc3C(=O)O)c2C#N)C1` (centres undefined) [2-[[3-cyano-6-(2-methylbutan-2-yl)-4,5,6,7-tetrahydro-1-benzothiophen-2-yl]carbamoyl]benzoic acid], the IC50 turned out to be 7.3 µM.

In turn, `COC(=O)c1sc(-c2ccc(C(C)(C)C)cc2)cc1NC(=O)c1ccccc1C(=O)O` [SMR000456098] gave an IC50 of 1.5 µM.

`COc1cc(CN=Nc2ccc(Cl)c(C(=O)O)c2)ccc1OC(=O)c1ccccc1F` [SMR000589905]: the IC50 amounted to 68 µM.

Compound `COc1cc(CN=Nc2ccc(Cl)c(C(=O)O)c2)ccc1OC(=O)c1ccc(F)cc1` [2-chloro-5-[2-[[4-[(4-fluorophenyl)-oxomethoxy]-3-methoxyphenyl]methylidene]hydrazinyl]benzoic acid] returned an IC50 of 30 µM.

`Cc1ccc(S(=O)(=O)Oc2ccc(/C=C3/C(=N)N4C(=NC3=O)SN=C4S(C)(=O)=O)cc2)cc1` [4-methylbenzenesulfonic acid [4-[(Z)-(5-imino-3-methylsulfonyl-7-oxo-[1,2,4]thiadiazolo[4,5-a]pyrimidin-6-ylidene)methyl]phenyl] ester] had a concentration for half-maximal inhibition (IC50) of 8 µM.

The compound `O=C(O)c1ccccc1C(=O)N(Cc1cccc(Oc2ccc(Cl)cc2)c1)[C@H]1CCCc2ccccc21` [2-[[[3-(4-chlorophenoxy)phenyl]methyl-[(1S)-1,2,3,4-tetrahydronaphthalen-1-yl]amino]-oxomethyl]benzoic acid] came in with an IC50 of 4.1 µM.

In turn, `Cc1c2c(=O)n(-c3nc4ccccc4s3)[nH]c2cc(=O)n1Cc1ccccc1` [MLS000762993] had an IC50 of 6.58 µM.

As for `CCOC(=O)C1=C(C)N=c2sc(=Cc3ccc(OCC(=O)O)cc3)c(=O)n2C1c1ccc(OC(C)C)cc1` (centres undefined) [2-[4-[[6-ethoxycarbonyl-7-methyl-3-oxo-5-(4-propan-2-yloxyphenyl)-5H-[1,3]thiazolo[3,2-a]pyrimidin-2-ylidene]methyl]phenoxy]acetic acid], the IC50 stood at 4.45 µM.

As to `Cc1ccc(-n2cccc2/C=C2/C(=N)N3C(=NC2=O)SN=C3S(C)(=O)=O)cc1Cl` [MLS000583163], 4.6 µM corresponded to half-maximal inhibition (IC50).

Compound `O=[N+]([O-])c1cc([N+](=O)[O-])c2oc(-c3ccccc3)c(Br)c2c1O` [3-bromanyl-5,7-dinitro-2-phenyl-1-benzofuran-4-ol] yielded an IC50 of 2.5 µM.

`CC(C)S(=O)(=O)C1=NSC2=NC(=O)/C(=C\c3ccc(-c4ccccc4)o3)C(=N)N21` [(6Z)-5-imino-6-[(5-phenyl-2-furanyl)methylidene]-3-propan-2-ylsulfonyl-[1,2,4]thiadiazolo[4,5-a]pyrimidin-7-one] showed an IC50 of 3.2 µM.

The compound `CCC(Sc1nc2ccsc2c(=O)n1Cc1ccc(C(=O)O)cc1)C(=O)Nc1ccc(C)c(Cl)c1` (centres undefined) showed a half-inhibitory concentration (IC50) of 13.2 µM.

The compound `O=C1NC(=S)N(c2ccc(F)cc2)C(=O)C1=Cc1ccoc1` [SMR000270574] came in with an IC50 of 11.3 µM. The IC50 values of the last two compounds are within 1.5-fold of each other.

`COc1cc(/C=N/NS(=O)(=O)c2ccc3ccccc3c2)ccc1OCc1ccc(C(=O)O)cc1` [MLS-0298745.0001] showed an IC50 of 31 µM.

With `N#C/C(=C\c1ccc(OCc2ccc(Cl)cc2)cc1)C(=O)Nc1cccc(C(=O)O)c1` [MLS-0334991.0001], the IC50 was more than 100 µM.
